Laboratory results published in PMC8198792, “Prediction of Anticancer Peptides with High Efficacy and Low Toxicity by Hybrid Model Based on 3D Structure of Peptides” (International Journal of Molecular Sciences, 2021).
Bridge positions count the residues as written; N and C are the ends. Peptide text beside a SMILES is read from it.

Legend:
[1] = test system: cervical cancer cell line (HeLa); assay type: cell-based, human; conditions: MTT assay, 6000 cells per well, peptides 0.5-128 μM for 24 h, triplicate, absorbance 570 and 630 nm; read-out: IC50 (μM) HeLa
From the text: (§1) Five peptides were randomly selected from the candidate ACPs and synthesized by Changzhou Kanglong Biotech Ltd (Changzhou, China). using 9-fuorenylmethoxy carbonyl (FMOC) solid phase synthesis technology. The synthetic peptide was identified by mass spectrometry (MS), and the purity >95% by high performance liquid chromatography (HPLC). Human breast cancer cell line (MCF7), lung cancer cell line (A549), cervical cancer cell line (HeLa), colorectal adenocarcinoma cell line (LoVo) and human embryonic kidney cells (293T) were preserved in our laboratory. At 37 °C under 5/95% CO2/air condition, all cell lines were cultured in Dulbecco’s modified Eagle medium (DMEM) supplemented with 10% (v/v) fetal bovine serum (FBS, Gibco, Carlsbad, CA, USA) and 1% (v/v) penicillin/streptomycin (Sangon Biotech, Shanghai, China).
(§2) Human tumor cell lines MCF7, A549, HeLa and LoVo were used as experimental materials to detect the anticancer activity of peptides by MTT assay. In addition, human embryonic kidney cells 293T were also included in the experiment to examine the safety of the peptide against non-cancerous cells. […] Untreated cells as negative control group incubated with corresponding medium for 24 h. Subsequently, 10 uL, 5 mg/mL MTT (Sangon Biotech, Shanghai, China) solution was added to each well and incubated for 4 h at 37 °C. After the medium was discarded, 150 μL DMSO was added to each well for 10 min to dissolve formazan crystals. Absorbance was measured at 570 and 630 nm using a multiwall plate reader and the inhibition rate was expressed as the mean ± standard deviation (SD) of the triplicate data.

[2] = test system: colorectal adenocarcinoma cell line (LoVo); assay type: cell-based, human; conditions: MTT assay, 6000 cells per well, peptides 0.5-128 μM for 24 h, triplicate, absorbance 570 and 630 nm; read-out: IC50 (μM) LoVo
From the text: as §1, §2

[3] = test system: lung cancer cell line (A549); assay type: cell-based, human
From the text: as §1, §2

[4] = test system: Human breast cancer cell line (MCF7); assay type: cell-based; conditions: MTT assay, 6000 cells per well, peptides 0.5-128 μM for 24 h, triplicate, absorbance 570 and 630 nm; read-out: IC50 (μM) MCF7
From the text: as §1, §2

[5] = test system: human embryonic kidney cells (293T); assay: MTT assay on non-cancerous cells, 293T; assay type: cell-based
From the text: as §1, §2

[6] = test system: 2% sheep red blood cells (SRBC); assay: Hemolysis assay; assay type: cell-based
Protocol: The 2% sheep red blood cells (SRBC) were purchased from Nanjing Senbeijia Biological Technology Co., Ltd (Nangjing, China). A total of 4 mL of 2% SRBC was taken, rinsed twice with 4 mL of PBS by centrifugation for 5 min at 3000 rpm and the precipitates were resuspended in 4 mL of PBS. We added 100 μL of 2% SRBC to each well of the 96-well plate and then added 100 μL peptide solutions of different concentrations (2, 4, 8, 16, 32, 64, 128 and 256 μM) in triplicate at 37 °C for 1 h. 100 μL of PBS buffer and 100 uL of Triton X-100 0.1% (w/v) were mixed with SRBC as negative and positive controls, respectively. All samples were centrifuged at 3000 rpm for 5 min, 100 μL supernatant was collected and transferred to a new 96-well plate, and its absorbance was measured at 540 nm. The calculation formula of hemolysis rate is as follows. (5) % Hemolysis=absorbancesample-absorbancenegative/absorbancepositive-absorbancenegative×100

For `CC[C@H](C)[C@H](NC(=O)[C@H](CC(C)C)NC(=O)[C@H](CC(C)C)NC(=O)[C@H](CC(=O)O)NC(=O)[C@H](CCCCN)NC(=O)[C@@H](NC(=O)[C@H](C)NC(=O)CNC(=O)[C@H](CC(C)C)NC(=O)[C@@H](NC(=O)CN)C(C)C)C(C)C)C(=O)NCC(=O)N[C@@H](C)C(=O)NCC(=O)N[C@@H](CCCCN)C(=O)N[C@@H](CO)C(=O)N[C@@H](C)C(=O)N[C@@H](C)C(=O)N[C@@H](CCC(N)=O)C(=O)N[C@@H](CO)C(=O)N[C@H](C(=O)N[C@@H](CC(C)C)C(=O)N[C@@H](CCCCN)C(=O)N[C@H](C(=O)N[C@@H](CC(C)C)C(=O)N[C@@H](CO)C(=O)N[C@H]1CSSC[C@@H](C(=O)O)NC(=O)[C@H](CC(=O)O)NC(=O)[C@H](CC(N)=O)NC(=O)[C@H](CO)NC(=O)[C@H](CC(C)C)NC(=O)[C@H](CCCCN)NC1=O)[C@@H](C)O)C(C)C` [Odorranain-C1] (H-GVLGAVKDLLIGAGKSAAQSVLKTLSCKLSNDC-OH; disulfide 27-33), the IC50 [1] was 52.8 µM, the IC50 [2] was 55.2 µM and the IC50 ([3]; MTT assay, 6000 cells per well, peptides 0.5-128 μM for 24 h, triplicate, absorbance 570 and 630 nm, read-out: IC50 (μM) A549) was 27.3 µM. For the same compound, the “killing effects on lung cancer cell A549 (in words)” value ([3]; MTT, 24 h, anticancer activity when IC50 less than 50 μM) was “effective killing effects”, the IC50 [4] was 41.2 µM and the “toxicity to 293T cells (in words)” value ([5]; low toxicity when the IC50 value exceeded 50 μM, MTT, 24 h) was “certain toxicity”. For the same compound, the IC50 ([5]; non-cancerous cells, MTT assay, 6000 cells per well, peptides 0.5-128 μM for 24 h, triplicate, absorbance 570 and 630 nm, read-out: IC50 (μM) 293T) was 48.7 µM, the “hemolysis (in words)” value ([6]; hemolytic rate of 100 μM peptides more than 10% as the classification standard, 2% sheep erythrocytes) was “no hemolysis” and the “Hemolytic effect on 2% sheep erythrocytes, peptide concentration 2 μM” value ([6]; peptide 2 μM, 2% SRBC in PBS, 37 °C, 1 h, absorbance 540 nm, triplicate) was “− (The “−” symbol indicates the hemolysis rate of less than 10% at peptides concentration of 100 μM)”. The “Hemolytic effect on 2% sheep erythrocytes, peptide concentration 4 μM” value ([6]; peptide 4 μM, 2% SRBC in PBS, 37 °C, 1 h, absorbance 540 nm, triplicate) was “− (The “−” symbol indicates the hemolysis rate of less than 10% at peptides concentration of 100 μM)”, the “Hemolytic effect on 2% sheep erythrocytes, peptide concentration 8 μM” value ([6]; peptide 8 μM, 2% SRBC in PBS, 37 °C, 1 h, absorbance 540 nm, triplicate) was “− (The “−” symbol indicates the hemolysis rate of less than 10% at peptides concentration of 100 μM)” and the “Hemolytic effect on 2% sheep erythrocytes, peptide concentration 16 μM” value ([6]; peptide 16 μM, 2% SRBC in PBS, 37 °C, 1 h, absorbance 540 nm, triplicate) was “− (The “−” symbol indicates the hemolysis rate of less than 10% at peptides concentration of 100 μM)”. For the same compound, the “Hemolytic effect on 2% sheep erythrocytes, peptide concentration 32 μM” value ([6]; peptide 32 μM, 2% SRBC in PBS, 37 °C, 1 h, absorbance 540 nm, triplicate) was “− (The “−” symbol indicates the hemolysis rate of less than 10% at peptides concentration of 100 μM)”, the “Hemolytic effect on 2% sheep erythrocytes, peptide concentration 64 μM” value ([6]; peptide 64 μM, 2% SRBC in PBS, 37 °C, 1 h, absorbance 540 nm, triplicate) was “− (The “−” symbol indicates the hemolysis rate of less than 10% at peptides concentration of 100 μM)” and the “Hemolytic effect on 2% sheep erythrocytes, peptide concentration 128 μM” value ([6]; peptide 128 μM, 2% SRBC in PBS, 37 °C, 1 h, absorbance 540 nm, triplicate) was “− (The “−” symbol indicates the hemolysis rate of less than 10% at peptides concentration of 100 μM)”. For the same compound, the “Hemolytic effect on 2% sheep erythrocytes, peptide concentration 256 μM” value ([6]; peptide 256 μM, 2% SRBC in PBS, 37 °C, 1 h, absorbance 540 nm, triplicate) was “− (The “−” symbol indicates the hemolysis rate of less than 10% at peptides concentration of 100 μM)”.
